Measured values: US20260042731A1, “(2,4-DICHLOROPHENOXY)ACETIC ACID ANALOGS” (CORTEVA AGRISCIENCE LLC, priority 2022, published 2026)
Like-named read-outs stand apart in the source and are kept apart here.

Legend:
[1] = tested on: Common Lambsquarters (CHEAL); assay: Greenhouse post-emergence mixture trials, percent visual control; type: in vivo; details: CHEAL, 21 DAA; for pest or weed control at 560 g/ha / pest or weed control at 1120 g/ha: Chenopodium album, post-emergence, 504 h; for pest or weed control at 1120 g/ha: read-out: % Control
[2] = tested on: Ambrosia artemisiifolia (AMBEL), common ragweed; assay: Postemergence herbicide evaluation, growth of Ambrosia artemisiifolia (AMBEL); type: in vivo; details: Ambrosia artemisiifolia, post-emergence, percent reduction in plant size relative to untreated control, read-out: AVE. AMBEL; for pest or weed control at 280 g/ha: 280 g ae/ha; for pest or weed control at 560 g/ha: 560 g ae/ha
[3] = Volatility of compounds measured by thermogravimetric analysis (TGA); type: physicochemical
Velvetleaf (ABUTH) = assay: Greenhouse post-emergence mixture trials, percent visual control; type: in vivo; details: ABUTH, 21 DAA; for pest or weed control at 560 g/ha / pest or weed control at 1120 g/ha: Abutilon theophrasti, post-emergence, 504 h; for pest or weed control at 560 g/ha: compound 560 g ae/ha; for pest or weed control at 1120 g/ha: compound 1120 g ae/ha, read-out: % Control
[4] = tested on: glyphosate resistant Conyza canadensis (L.) (ERICA), horseweed; assay: Postemergence herbicide evaluation, growth of Conyza canadensis (ERICA); type: in vivo; details: Erigeron canadensis, post-emergence, percent reduction in plant size relative to untreated control, read-out: Ave. ERICA; for pest or weed control at 280 g/ha: 280 g ae/ha; for pest or weed control at 560 g/ha: 560 g ae/ha
[5] = tested on: weeds (ABUTH, AMATA, AMBEL, CHEAL, ERICA); assay: Postemergence herbicide evaluation, overall average % weed control across ABUTH, AMATA, AMBEL, CHEAL, ERICA; type: in vivo; details: post-emergence, average over the five weeds, read-out: Overall Ave % Weed Control; for pest or weed control at 280 g/ha: 280 g ae/ha; for pest or weed control at 560 g/ha: 560 g ae/ha
Corn (ZEAMX) = assay: Greenhouse post-emergence mixture trials, percent visual control; type: in vivo; details: ZEAMX, 21 DAA; for plant injury at 560 g/ha / plant injury at 1120 g/ha: Zea mays, post-emergence, 504 h; for plant injury at 560 g/ha: compound 560 g ae/ha
[6] = tested on: Chenopodium album (CHEAL), common lambsquarters; assay: Postemergence herbicide evaluation, growth of Chenopodium album (CHEAL); type: in vivo; details: Chenopodium album, post-emergence, percent reduction in plant size relative to untreated control, read-out: Ave. CHEAL; for pest or weed control at 280 g/ha: 280 g ae/ha; for pest or weed control at 560 g/ha: 560 g ae/ha
[7] = tested on: Abutilon theophrasti (ABUTH), velvetleaf; assay: Postemergence herbicide evaluation, growth of Abutilon theophrasti (ABUTH); type: in vivo; details: Abutilon theophrasti, post-emergence, percent reduction in plant size relative to untreated control, read-out: AVE. ABUTH; for pest or weed control at 280 g/ha: 280 g ae/ha; for pest or weed control at 560 g/ha: 560 g ae/ha
[8] = tested on: Amaranthus rudis (AMATA), tall water hemp; assay: Postemergence herbicide evaluation, growth of Amaranthus rudis (AMATA); type: in vivo; details: Amaranthus tuberculatus, post-emergence, percent reduction in plant size relative to untreated control, read-out: Ave. AMATA; for pest or weed control at 280 g/ha: 280 g ae/ha; for pest or weed control at 560 g/ha: 560 g ae/ha
[9] = Trial Bridge 2, compound 560 g ae/ha + Saflufenacil 25 g ai or ae/ha
[10] = Trial Bridge 2, compound 560 g ae/ha + Saflufenacil 75 g ai or ae/ha
[11] = Trial Bridge 2, compound 560 g ae/ha + Trifludimoxazin 50 g ai or ae/ha
[12] = Trial Bridge 2, compound 1120 g ae/ha + Saflufenacil 25 g ai or ae/ha
[13] = Trial Bridge 2, compound 1120 g ae/ha + Saflufenacil 75 g ai or ae/ha
[14] = Trial Bridge 2, compound 1120 g ae/ha + Trifludimoxazin 12.5 g ai or ae/ha
[15] = Trial Bridge 2, compound 1120 g ae/ha + Trifludimoxazin 50 g ai or ae/ha
[16] = Trial Bridge 1, compound 560 g ae/ha, no mixing partner
[17] = Trial Bridge 1, compound 1120 g ae/ha, no mixing partner
[18] = Trial Bridge 1, compound 560 g ae/ha + Arylex 5 g ai or ae/ha
[19] = Trial Bridge 1, compound 560 g ae/ha + Mesotrione 150 g ai or ae/ha
[20] = Trial Bridge 1, compound 1120 g ae/ha + Glufosinate 600 g ai or ae/ha
[21] = Trial Bridge 1, compound 1120 g ae/ha + Mesotrione 150 g ai or ae/ha
[22] = no mixing partner, Trial Bridge 3
[23] = Trial Bridge 1, mixing partner none
[24] = Trial Bridge 2, no mixing partner
[25] = compound 1120 g ae/ha, no mixing partner, Trial Bridge 3

O=C(COc1ccc(Cl)cc1Cl)NOCc1ccccc1 [Compound D8, N-(Benzyloxy)-2-(2,4-dichlorophenoxy)acetamide]
% Control [1, 9]: 100% | % Control [1, 10]: 100% | % Control ([1]; Trial Bridge 2, compound 560 g ae/ha + Trifludimoxazin 12.5 g ai or ae/ha): 100% | % Control [1, 11]: 100% | % Control [1, 12]: 100% | % Control [1, 13]: 100% | % Control [1, 14]: 100% | % Control [1, 15]: 100% | % Control ([1]; Trial Bridge 3, compound 560 g ae/ha + Sulfentrazone 130 g ai/ha): 100% | % Control ([1]; Trial Bridge 3, compound 560 g ae/ha + Sulfentrazone 347 g ai/ha): 100% | % Control ([1]; Trial Bridge 3, compound 1120 g ae/ha + Sulfentrazone 130 g ai/ha): 100% | pest or weed control at 560 g/ha ([1]; Trial Bridge 2, compound 560 g ae/ha, no mixing partner): 98% | pest or weed control at 1120 g/ha ([1]; Trial Bridge 2, compound 1120 g ae/ha, no mixing partner): 100% | pest or weed control at 560 g/ha ([1]; Trial Bridge 3, compound 560 g ae/ha, no mixing partner): 100% | pest or weed control at 1120 g/ha ([1]; Trial Bridge 3, compound 1120 g ae/ha, no mixing partner): 100% | pest or weed control at 560 g/ha [1, 16]: 95% | pest or weed control at 1120 g/ha [1, 17]: 100% | % Control [1, 18]: 100% | % Control [1, 19]: 100% | % Control [1, 16]: 95% | % Control [1, 20]: 100% | % Control [1, 21]: 100% | pest or weed control at 280 g/ha ([2]; 168 h, 7 DAA): 68% | pest or weed control at 560 g/ha ([2]; 168 h, 7 DAA): 75% | pest or weed control at 280 g/ha ([2]; 336 h, 14 DAA): 96% | pest or weed control at 560 g/ha ([2]; 336 h, 14 DAA): 95% | pest or weed control at 280 g/ha ([2]; 504 h, 21 DAA): 99% | pest or weed control at 560 g/ha ([2]; 504 h, 21 DAA): 99% | TGA Data (rate of weight loss, volatility) [3]: 0.04 µg/min | % Control (Velvetleaf (ABUTH); compound 560 g ae/ha + Sulfentrazone 130 g ai/ha, Trial Bridge 3): 100% | % Control (Velvetleaf (ABUTH); compound 1120 g ae/ha + Sulfentrazone 130 g ai/ha, Trial Bridge 3): 100% | % Control (Velvetleaf (ABUTH); compound 1120 g ae/ha + Sulfentrazone 347 g ai/ha, Trial Bridge 3): 100% | pest or weed control at 560 g/ha (Velvetleaf (ABUTH); [22]): 90% | pest or weed control at 1120 g/ha (Velvetleaf (ABUTH); [22]): 95% | pest or weed control at 560 g/ha (Velvetleaf (ABUTH); [23]): 100% | pest or weed control at 1120 g/ha (Velvetleaf (ABUTH); [23]): 100% | pest or weed control at 560 g/ha (Velvetleaf (ABUTH); [24]): 100% | pest or weed control at 1120 g/ha (Velvetleaf (ABUTH); [24]): 100% | % Control (Velvetleaf (ABUTH); [18]): 100% | % Control (Velvetleaf (ABUTH); Trial Bridge 1, compound 560 g ae/ha + Glyphosate 1120 g ai or ae/ha): 100% | % Control (Velvetleaf (ABUTH); [19]): 100% | % Control (Velvetleaf (ABUTH); Trial Bridge 1, compound 560 g ae/ha + diclosulam 35 g ai or ae/ha): 100% | % Control (Velvetleaf (ABUTH); Trial Bridge 1, compound 1120 g ae/ha + Arylex 5 g ai or ae/ha): 100% | % Control (Velvetleaf (ABUTH); [20]): 100% | % Control (Velvetleaf (ABUTH); Trial Bridge 1, compound 1120 g ae/ha + Glyphosate 1120 g ai or ae/ha): 100% | % Control (Velvetleaf (ABUTH); [21]): 100% | % Control (Velvetleaf (ABUTH); Trial Bridge 1, compound 1120 g ae/ha + diclosulam 35 g ai or ae/ha): 100% | % Control (Velvetleaf (ABUTH); [9]): 100% | % Control (Velvetleaf (ABUTH); [10]): 100% | % Control (Velvetleaf (ABUTH); [11]): 100% | % Control (Velvetleaf (ABUTH); [12]): 100% | % Control (Velvetleaf (ABUTH); [13]): 100% | % Control (Velvetleaf (ABUTH); [14]): 100% | % Control (Velvetleaf (ABUTH); [15]): 100% | pest or weed control at 280 g/ha ([4]; 168 h, 7 DAA): 68% | pest or weed control at 560 g/ha ([4]; 168 h, 7 DAA): 70% | pest or weed control at 280 g/ha ([4]; 336 h, 14 DAA): 88% | pest or weed control at 560 g/ha ([4]; 336 h, 14 DAA): 85% | pest or weed control at 280 g/ha ([4]; 504 h, 21 DAA): 95% | pest or weed control at 560 g/ha ([4]; 504 h, 21 DAA): 92% | pest or weed control at 280 g/ha ([5]; 168 h, 7 DAA): 70% | pest or weed control at 560 g/ha ([5]; 168 h, 7 DAA): 73% | pest or weed control at 280 g/ha ([5]; 336 h, 14 DAA): 85% | pest or weed control at 560 g/ha ([5]; 336 h, 14 DAA): 88% | pest or weed control at 280 g/ha ([5]; 504 h, 21 DAA): 88% | pest or weed control at 560 g/ha ([5]; 504 h, 21 DAA): 93% | % Control (Corn (ZEAMX); [25]): 5% | plant injury at 560 g/ha (Corn (ZEAMX); Trial Bridge 1, no mixing partner): 5% | plant injury at 1120 g/ha (Corn (ZEAMX); [17]): 5% | plant injury at 560 g/ha (Corn (ZEAMX); Trial Bridge 2, mixing partner none): 5% | plant injury at 560 g/ha (Corn (ZEAMX); [22]): 10% | plant injury at 1120 g/ha (Corn (ZEAMX); [25]): 5% | pest or weed control at 280 g/ha ([6]; 168 h, 7 DAA): 63% | pest or weed control at 560 g/ha ([6]; 168 h, 7 DAA): 63% | pest or weed control at 280 g/ha ([6]; 336 h, 14 DAA): 65% | pest or weed control at 560 g/ha ([6]; 336 h, 14 DAA): 83% | pest or weed control at 280 g/ha ([6]; 504 h, 21 DAA): 75% | pest or weed control at 560 g/ha ([6]; 504 h, 21 DAA): 97% | pest or weed control at 280 g/ha ([7]; 168 h, 7 DAA): 83% | pest or weed control at 560 g/ha ([7]; 168 h, 7 DAA): 83% | pest or weed control at 280 g/ha ([7]; 336 h, 14 DAA): 93% | pest or weed control at 560 g/ha ([7]; 336 h, 14 DAA): 91% | pest or weed control at 280 g/ha ([7]; 504 h, 21 DAA): 99% | pest or weed control at 560 g/ha ([7]; 504 h, 21 DAA): 96% | pest or weed control at 280 g/ha ([8]; 168 h, 7 DAA): 68% | pest or weed control at 560 g/ha ([8]; 168 h, 7 DAA): 75% | pest or weed control at 280 g/ha ([8]; 336 h, 14 DAA): 85% | pest or weed control at 560 g/ha ([8]; 336 h, 14 DAA): 85% | pest or weed control at 280 g/ha ([8]; 504 h, 21 DAA): 73% | pest or weed control at 560 g/ha ([8]; 504 h, 21 DAA): 83%
